In patent US7572765B2, “Conformationally constrained parathyroid hormone (PTH) analogs” (The General Hospital Corporation, priority 2001, dated 2009):

What was measured:
[1] = Circular dichroism spectroscopy (helical content); format: physicochemical
Procedure: Circular Dichroism. Circular Dichroism spectra were recorded on a Jasco model 710 spectropolarimeter; peptides were analyzed at a concentration of20 μM in 50 mM sodium phosphate buffer pH 7.4, or the same buffer containing 2,2,2-trifluoroethanol at 20% (v/v). Spectroscopic scans were preformed at 20° C. and at wavelengths between […], with data recored at each 1 nM interval. The spectral bandwidth was 1.5 nM and 8 scans were accumulated and averaged for each sample. At each wavelength, the mean residue elipticity [θ×100/l×C×n); where θ is the raw elipticity value (in dimensions of millidegree), l is the sample path length, C=is the molar peptide concentration, and n is the number of residues in the peptide (Bowen, W. P., and Jerman, J. C., Trends in Pharmacol. Sci. 16: 413-417 (1995)). The helical content of each peptide was estimated by dividing [θ] observed at 222 nM for that peptide by −28,100, which is the reported [θ]222obs for a model helical decapeptide (Bowen, W. P., and Jerman, J. C., Trends in Pharmacol. Sci. 16: 413-417 (1995)).
Circular dichroism (CD) spectroscopy was used to analyze the potential effects that the Aib substitutions had on peptide secondary structure when the peptides were free in solution. Samples were analyzed in both aqueous phosphate buffer and in phosphate buffer containing 2,2,2-trifloroethanol, an organic solvent which promotes helical structure in oligopeptides, including PTH peptide fragments (Pellegrini, M., et al., J. Biol. Chem. 273:10420-10427 (1998); Gronwald, W., et al., Biol. Chem. Hoppe Seyler 377:175-186 (1996); Barden, J. A., and Kemp, B. E., Biochemistry 32:7126-7132 (1993)). In phosphate buffer, the helical content of each peptide, estimated from the elipticity observed at 222 nM, was small (≦16%); however, [Aib^1,3,M]PTH(1-14) contained nearly twice as much helix as did [M]PTH(1-14) (16% and 8.1% respectively), as did [Aib^1,3,M]PTH(1-1l), as compared to […] (13% and 7.5% respectively, Table 4). […] The higher helical contents of these two peptides were evident not only from the negative elipticities at […] and 222 nM, but also from the positive elipticities at 192 nM (FIG. 6).

human P1R = target: T1, human P1R (Homo sapiens, UniProt Q03431); details: HKRK-B28 cells; previously shown (Shimizu et al., Endocrinology 2001); read-out: cAMP EC50; cited from earlier work
T1 construct: expressed in transfected cells; host or cells: HKRK-B28 (porcine kidney LLC-PK1, stably transfected)
T1 sequence (Q03431 27-593): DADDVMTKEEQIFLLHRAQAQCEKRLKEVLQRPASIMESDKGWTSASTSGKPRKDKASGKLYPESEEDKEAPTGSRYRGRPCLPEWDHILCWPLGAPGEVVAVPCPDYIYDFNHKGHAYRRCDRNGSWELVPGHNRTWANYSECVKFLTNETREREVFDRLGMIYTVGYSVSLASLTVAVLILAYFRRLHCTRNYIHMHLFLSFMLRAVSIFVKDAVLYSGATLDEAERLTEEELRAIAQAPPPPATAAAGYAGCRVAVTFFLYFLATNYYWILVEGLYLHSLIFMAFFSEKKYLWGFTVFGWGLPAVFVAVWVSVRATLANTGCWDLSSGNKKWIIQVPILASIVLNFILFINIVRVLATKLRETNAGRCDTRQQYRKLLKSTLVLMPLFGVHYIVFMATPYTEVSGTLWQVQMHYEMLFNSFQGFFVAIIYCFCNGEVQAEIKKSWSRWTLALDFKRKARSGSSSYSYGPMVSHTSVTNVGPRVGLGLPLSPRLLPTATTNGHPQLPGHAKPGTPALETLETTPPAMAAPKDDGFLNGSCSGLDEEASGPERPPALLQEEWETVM

[0]222obs × 10^−3, Phos. ([1]; 20 μM peptide, 50 mM phosphate buffer pH 7.4): −2.1
[0]222obs × 10^−3, Phos + TFE ([1]; 20 μM peptide, 50 mM phosphate buffer with trifluoroethanol (20%)): −9.9
helical residues (%), Phos + TFE ([1]; 50 mM phosphate buffer with trifluoroethanol (20%), from elipticity at 222 nM): 35%
helical residues (%), Phos. ([1]; 50 mM phosphate buffer, from elipticity at 222 nM): 7.5%
Substance: [Ala^3,Gln^10,Har^11]PTH(1-11)amide [[M]PTH(1-11)]
EC50 (human P1R): 3000 nM
